For assay [1], the system named is Staphylococcus aureus cells containing antisense to the Beta subunit of DNA gyrase (S1M10000001F08). Description: Antibiotic potency in cells with xylose-induced antisense to the Beta subunit of DNA gyrase. It is filed as cell-based. Particulars: 12 mM xylose versus 0 mM xylose; FIG. 10.
For assay [2], the system named is E. coli transformed with IPTG-inducible antisense clones. Description: Cell-based assay using antisense complementary to genes encoding ribosomal proteins (antibiotic sensitivity with and without IPTG). To be noted: with IPTG versus without IPTG; for Sensitivity to antibiotic of cells transcribing antisense to protein synthesis genes: AS-rplL, AS-rplW, AS-rplL/J and other protein synthesis gene clones.

Assay [3] relates to cells which overexpress the defB gene product. In words: Growth of cells overexpressing the defB gene in the presence of antibiotics. It counts as cell-based. Particulars: FIG. 16.
Assay [4] relates to cells which overexpress the folA gene product. In words: Growth of cells overexpressing the folA gene in the presence of antibiotics. To be noted: for resistance conferred by overexpression of the folA gene: FIG. 15. It is filed as cell-based.
Assay [5] has as its system overexpression of the fabI gene. In words: Growth of cells overexpressing the fabI gene in the presence of antibiotics. It counts as cell-based. Particulars: FIG. 14.
Assay [6] relates to overexpression of the fabF gene (β keto-acyl carrier protein synthase). In words: Growth of cells overexpressing the fabF gene in the presence of antibiotics. Particulars: FIG. 17. It counts as cell-based.
Assay [7] deals with Staphylococcus aureus cells overexpressing a gene product required for proliferation. Description: Growth of strains overexpressing a proliferation-required gene (XylT5 promoter) at elevated antibiotic concentrations. It counts as cell-based. Particulars: for resistance conferred by overexpression of the defB gene: defB (peptide deformylase) overexpressed, FIG. 16; for resistance conferred by overexpression of the fabF gene: fabF (β keto-acyl carrier protein synthase II) overexpressed, FIG. 17; for resistance conferred by overexpression of the fabI gene: fabI (enoyl-acyl carrier protein reductase) overexpressed, FIG. 14; for resistance conferred by overexpression of the folA gene: folA (dihydrofolate reductase) overexpressed, FIG. 15.

In assay [8] the test system is Strains of Staphylococcus aureus containing plasmids encoding antisense nucleic acids. In words: Selective disappearance of amplification products of strains underexpressing the antibiotic's target (mixed antisense strains). It is filed as cell-based. Particulars: rich medium.
Assay [9] has as its system mixture of nine S. aureus strains overexpressing fabF, defB, folA, fabI, ileS, fusA, gyrB, murA, rpoB. In words: Selection of a strain overexpressing the target gene product from a mixture of nine overexpressing strains. It is filed as cell-based. Particulars: folA gene; at least 60 colonies.

Converted amounts (≈) assume the structure as drawn.

`CO/N=C(\C(=O)N[C@@H]1C(=O)N2C(C(=O)O)=C(COC(C)=O)CS[C@H]12)c1csc(N)n1` [Cefotaxime]: in assay [1], the “Potency in induced cells as compared to uninduced cells” value (from here on “Potency … compared to uninduced cells”) is “not significantly different”.

On to `CO[C@@]1(NC(=O)Cc2cccs2)C(=O)N2C(C(=O)O)=C(COC(N)=O)CS[C@@H]21` [Cefoxitin], for which the “Potency … compared to uninduced cells” value in assay [1] is “not significantly different”.

`CC[C@H]1OC(=O)[C@H](C)[C@@H](O[C@H]2C[C@@](C)(OC)[C@@H](O)[C@H](C)O2)[C@H](C)[C@@H](O[C@@H]2O[C@H](C)C[C@H](N(C)C)[C@H]2O)[C@](C)(O)C[C@@H](C)C(=O)[C@H](C)[C@@H](O)[C@]1(C)O` [Erythromycin]: in [2] (AS-atpB/E, AS-visC, AS-elaD, AS-yohH), the “Sensitivity to antibiotic of cells transcribing antisense to genes not involved in protein synthesis” value is reported as “do not”. For the same compound, the “Sensitivity to antibiotic of cells transcribing antisense to protein synthesis genes” value in assay [2] is recorded as “increased sensitivity”.

`CC(=O)O[C@H]1C[C@@]2(C)[C@@H](C[C@@H](O)[C@H]3[C@@]4(C)CC[C@@H](O)[C@@H](C)[C@@H]4CC[C@@]32C)/C1=C(\CCC=C(C)C)C(=O)O` [Fusidic acid]: the “Potency … compared to uninduced cells” value in assay [1] was “not significantly different”.

Regarding `CCC[C@@H]1C[C@@H](C(=O)N[C@@H]([C@H]2O[C@H](SC)[C@H](O)[C@@H](O)[C@H]2O)[C@@H](C)O)N(C)C1` [Lincomycin], the “Potency … compared to uninduced cells” value in [1] is on record as “not significantly different”.

Take `CCn1cc(C(=O)O)c(=O)c2ccc(C)nc21` [Nalidixic acid]: in [2], the “Sensitivity to antibiotic of cells transcribing antisense to protein synthesis genes” value is recorded as “does not show increased sensitivity”.

In the case of `NC[C@H]1O[C@H](O[C@H]2[C@H](O)[C@@H](O[C@H]3O[C@H](CO)[C@@H](O)[C@H](N)[C@H]3O)[C@H](N)C[C@@H]2N)[C@H](N)C[C@@H]1O` [Tobramycin], the “Potency … compared to uninduced cells” value in assay [1] was “not significantly different”.

For the compound `CN[C@H](CC(C)C)C(=O)N[C@H]1C(=O)N[C@@H](CC(N)=O)C(=O)N[C@H]2C(=O)N[C@H]3C(=O)N[C@H](C(=O)N[C@H](C(=O)O)c4cc(O)cc(O)c4-c4cc3ccc4O)[C@H](O)c3ccc(c(Cl)c3)Oc3cc2cc(c3O[C@@H]2O[C@H](CO)[C@@H](O)[C@H](O)[C@H]2O[C@H]2C[C@](C)(N)[C@H](O)[C@H](C)O2)Oc2ccc(cc2Cl)[C@H]1O` [Vancomycin], in [1], the “Potency … compared to uninduced cells” value is recorded as “not significantly different”.

As for `C/C=C/C/C=C/CCC(=O)[C@H]1O[C@H]1C(N)=O` [cerulenin], the entries for the “resistance conferred by overexpression of the defB gene” value in assay [3] and in assay [7] were “does not confer resistance” and “did not confer resistance”, respectively. In addition, the “resistance conferred by overexpression of the folA gene” value is given as “does not confer resistance” in assay [4] and “did not confer resistance” in [7]. In addition, the “resistance conferred by overexpression of the fabI gene” value in assay [5] was “does not confer resistance”; in assay [7] it was “did not confer resistance”. In addition, the “resistance conferred by overexpression of the fabF gene” value in assay [6] and in [7] was “conferred resistance” throughout. In addition, the IC50 in assay [8] (read-out: IC50 (middle concentration used)) was 9 µg/mL (≈ 40.3 µM).

`C/C(=C\C(=O)OCCCCCCCCC(=O)O)C[C@@H]1OC[C@H](C[C@@H]2O[C@H]2[C@@H](C)[C@H](C)O)[C@@H](O)[C@H]1O` [mupriocin]: the “IC50 (middle concentration used)” value in [8] is 8.6 µg/mL (≈ 17.2 µM).

Consider `CO[C@@H]1[C@@H](OC(N)=O)[C@@H](O)[C@H](Oc2ccc3c(O)c(NC(=O)c4ccc(O)c(CC=C(C)C)c4)c(=O)oc3c2C)OC1(C)C` [novobiocin], for which the “Potency … compared to uninduced cells” value in assay [1] is on record as “significantly different”.

Take `Oc1cc(Cl)ccc1Oc1ccc(Cl)cc1Cl` [triclosan]: the “resistance conferred by overexpression of the defB gene” value is on record as “does not confer resistance” in [3] and “did not confer resistance” in [7]. The “resistance conferred by overexpression of the folA gene” value was “does not confer resistance” in assay [4] and “did not confer resistance” in assay [7]. Further, the “resistance conferred by overexpression of the fabI gene” value is listed as “confers resistance” in [5] and “conferred resistance” in assay [7]. Further, the figures for the “resistance conferred by overexpression of the fabF gene” value in assay [6] and in assay [7] were “does not confer resistance” and “did not confer resistance”, respectively.

For `COc1cc(Cc2cnc(N)nc2N)cc(OC)c1OC` [trimethoprim], the “resistance conferred by overexpression of the defB gene” value is on record as “does not confer resistance” in [3] and “did not confer resistance” in [7]. Also, the “resistance conferred by overexpression of the folA gene” value in [4] is given as “confers resistance”; in assay [7], “conferred resistance”. Besides, the “growth of cells overexpressing the folA gene product in presence of antibiotic” value in assay [4] (at appropriate concentrations of inducer, FIG. 13) is given as “able to grow at elevated concentrations”. Also, the figures for the “resistance conferred by overexpression of the fabI gene” value in assay [5] and in assay [7] were “does not confer resistance” and “did not confer resistance”, respectively. The “resistance conferred by overexpression of the fabF gene” value is recorded as “does not confer resistance” in assay [6] and “did not confer resistance” in assay [7]. In addition, the “Potency … compared to uninduced cells” value in assay [1] is listed as “not significantly different”. Moreover, the “Plasmids from colonies which grew in the presence of the antibiotic that contained the target gene” value in [9] is on record as 81%.

For the origin of these results see patent US20040029129A1, “Identification of essential genes in microorganisms” (priority 2001, published 2004).
